The source of these data is patent US20230391725A1, “MODULATORS OF THE INTEGRATED STRESS RESPONSE PATHWAY” (Evotec International GmbH, priority 2020, published 2023).

In this experiment the test system is ATF4. Nature of the experiment: HEK-ATF4 High Content Imaging assay (prevention of Tunicamycin induced ISR). The experiment is classed as cell-based. Conditions: Homo sapiens, Wild-type HEK293 cells, 6 h incubation, ATF4 signal ratio between nucleus and cytoplasm. The method, then:
Example compounds were tested in the HEK-ATF4 High Content Imaging assay to assess their pharmacological potency to prevent Tunicamycin induced ISR. Wild-type HEK293 cells were plated in 384-well imaging assay plates at a density of 12,000 cells per well in growth medium (containing DMEM/F12, 10% FBS, 2 mM L-Glutamine, 100 U/mL Penicillin—100 μg/mL Streptomycin) and incubated at 37° C., 5% CO2. 24 h later, the medium was changed to 50 μL assay medium per well (DMEM/F12, 0.3% FBS, 2mM L-Glutamine, 100 U/mL Penicillin—100 μg/mL Streptomycin). Example compounds were serially diluted in DMSO, spotted into intermediate plates and prediluted with assay medium containing 3.3 […] Tunicamycin to give an 11-fold excess of final assay concentration. In addition to the example compound testing area, the plates also contained multiples of control wells for assay normalization purposes, wells containing Tunicamycin but no example compounds (High control), as well as wells containing neither example compound nor Tunicamycin (Low control). The assay was started by transferring 5 μL from the intermediate plate into the assay plates, followed by incubation for 6 h at 37° C., 5% CO2. Subsequently, cells were fixed (4% PFA in PBS, 20 min at r.t.) and submitted to indirect ATF4 immunofluorescence staining (primary antibody rabbit anti ATF4, clone D4B8, Cell Signaling Technologies; secondary antibody Alexa Fluor 488 goat anti-rabbit IgG (H+L), Thermofisher Scientific). Nuclei were stained using Hoechst dye (Thermofisher Scientific), and plates were imaged on an Opera Phenix High Content imaging platform equipped with 405 nm and 488 nm excitation. Finally, images were analyzed using script based algorithms. The main readout HEK-ATF4 monitored the ATF4 signal ratio between nucleus and cytoplasm. Tunicamycin induced an increase in the overall ATF4 ratio signal, which was prevented by ISR modulating example compounds. In addition, HEK-CellCount readout was derived from counting the number of stained nuclei corresponding to healthy cells. This readout served as an internal toxicity control.

The structures appear in SMILES notation.

In the case of `O=C(COc1ccc(Cl)c(F)c1)N[C@@H]1CC[C@@H](C(=O)Nc2cccc(C(F)(F)F)c2)NC1` [Example 31, (2S,5R)-5-[2-(4-chloro-3-fluorophenoxy)acetamido]-N-[3-(trifluoromethyl)phenyl]piperidine-2-carboxamide], the IC50 lay within 1 to 500 nM.
As to `O=C(COc1ccc(Cl)c(F)c1)N[C@H]1CC[C@H](C(=O)Nc2cc(C(F)(F)F)cc(C(F)(F)F)c2)NC1` [Example 33, (2R,5S)-N-[3,5-bis(trifluoromethyl)phenyl]-5-[2-(4-chloro-3-fluorophenoxy)acetamido]piperidine-2-carboxamide], the IC50 lay within 500 to 2000 nM.
In the case of `O=C(COc1ccc(Cl)c(F)c1)N[C@H]1CC[C@H](C(=O)Nc2ccn(C(F)(F)F)n2)NC1` [Example 34, (2R,5S)-5-[2-(4-chloro-3-fluorophenoxy)acetamido]-N-[1-(trifluoromethyl)-1H-pyrazol-3-yl]piperidine-2-carboxamide], the IC50 lay in the range of 500 to 2000 nM.
As for `O=C(COc1ccc(Cl)c(F)c1)N[C@H]1CC[C@H](C(=O)Nc2cc(C(F)(F)F)ccc2F)NC1` [Example 35, (2R,5S)-5-[2-(4-chloro-3-fluorophenoxy)acetamido]-N-[2-fluoro-5-(trifluoromethyl)phenyl]piperidine-2-carboxamide], the figure is 500 to 2000 nM; as for `O=C(COc1ccc(Cl)c(F)c1)N[C@H]1CC[C@H](C(=O)Nc2cccc(C(F)(F)F)c2F)NC1` [Example 36, (2R,5S)-5-[2-(4-chloro-3-fluorophenoxy)acetamido]-N-[2-fluoro-3-(trifluoromethyl)phenyl]piperidine-2-carboxamide], 1 to 500 nM; as for `O=C(COc1ccc(Cl)c(F)c1)N[C@H]1CC[C@H](C(=O)Nc2cccc(OC(F)(F)F)n2)NC1` [Example 37, (2R,5S)-5-[2-(4-chloro-3-fluorophenoxy)acetamido]-N-[6-(trifluoromethoxy)pyridin-2-yl]piperidine-2-carboxamide], 1 to 500 nM.
As for `O=C(COc1ccc(Cl)c(F)c1)N[C@H]1CC[C@H](C(=O)Nc2cc(C(F)(F)F)ccn2)NC1` [Example 38, (2R,5S)-5-[2-(4-chloro-3-fluorophenoxy)acetamido]-N-[4-(trifluoromethyl)pyridin-2-yl]piperidine-2-carboxamide], the figure is 500 to 2000 nM.
As for `O=C(COc1ccc(Cl)c(F)c1)N[C@H]1CC[C@H](C(=O)Nc2ccc3c(c2)OC(F)(F)O3)NC1` [Example 39, (2R,5S)-5-[2-(4-chloro-3-fluorophenoxy)acetamido]-N-(2,2-difluoro-2H-1,3-benzodioxol-5-yl)piperidine-2-carboxamide], the IC50 was 1 to 500 nM.
On to `O=C(COc1ccc(Cl)c(F)c1)N[C@H]1CC[C@H](C(=O)N2Cc3ccc(C(F)(F)F)cc3C2)NC1` [Example 40, 2-(4-chloro-3-fluorophenoxy)-N-[(3S,6R)-6-[5-(trifluoromethyl)-2,3-dihydro-1H-isoindole-2-carbonyl]piperidin-3-yl]acetamide], for which the IC50 fell in the range of 1 to 500 nM.
As for `O=C(COc1ccc(Cl)c(F)c1)N[C@H]1CC[C@H](C(=O)N2Cc3ccc(OC(F)(F)F)cc3C2)NC1` [Example 41, 2-(4-chloro-3-fluorophenoxy)-N-[(3S,6R)-6-[5-(trifluoromethoxy)-2,3-dihydro-1H-isoindole-2-carbonyl]piperidin-3-yl]acetamide], the figure is 1 to 500 nM.
As for `Cn1nc(CNC(=O)[C@H]2CC[C@H](NC(=O)COc3ccc(Cl)c(F)c3)CN2)cc1C(F)(F)F` [Example 42, (2R,5S)-5-[2-(4-chloro-3-fluorophenoxy)acetamido]-N-{[1-methyl-5-(trifluoromethyl)-1H-pyrazol-3-yl]methyl}piperidine-2-carboxamide], the figure is 1 to 500 nM.
The value for `O=C(COc1ccc(Cl)c(F)c1)N[C@H]1CC[C@H](C(=O)NCc2cc(C(F)(F)F)on2)NC1` [Example 43, (2R,5S)-5-[2-(4-chloro-3-fluorophenoxy)acetamido]-N-{[5-(trifluoromethyl)-1,2-oxazol-3-yl]methyl}piperidine-2-carboxamide] was 500 to 2000 nM; that for `O=C(COc1ccc(Cl)c(F)c1)N[C@H]1CC[C@H](C(=O)NCc2cc(C(F)(F)F)ccn2)NC1` [Example 44, (2R,5S)-5-[2-(4-chloro-3-fluorophenoxy)acetamido]-N-{[4-(trifluoromethyl)pyridin-2-yl]methyl}piperidine-2-carboxamide] was 2000 to 15000 nM; that for `O=C(COc1ccc(Cl)c(F)c1)N[C@H]1CC[C@H](C(=O)N2CCc3c2cccc3C(F)(F)F)NC1` [Example 45, 2-(4-chloro-3-fluorophenoxy)-N-[(3S,6R)-6-[4-(trifluoromethyl)-2,3-dihydro-1H-indole-1-carbonyl]piperidin-3-yl]acetamide] was 2000 to 15000 nM.
For `O=C(COc1ccc(Cl)c(F)c1)N[C@H]1CC[C@H](C(=O)Nc2ccn(C3CC3(F)F)n2)NC1` (stereo partly drawn) [Example 46, (2R,5S)-5-[2-(4-chloro-3-fluorophenoxy)acetamido]-N-[1-(2,2-difluorocyclopropyl)-1H-pyrazol-3-yl]piperidine-2-carboxamide], the IC50 lay within 2000 to 15000 nM.
For `O=C(COc1ccc(Cl)c(F)c1)N[C@H]1CC[C@H](C(=O)NC2CCC(OC(F)(F)F)C2)NC1` (stereo partly drawn) [Example 47, (2R,5S)-5-[2-(4-chloro-3-fluorophenoxy)acetamido]-N-[3-(trifluoromethoxy)cyclopentyl]piperidine-2-carboxamide], the IC50 was in the range of 500 to 2000 nM.
Consider `O=C(COc1ccc(Cl)c(F)c1)N[C@H]1CC[C@H](C(=O)Nc2ccnc(C(F)(F)F)n2)NC1` [Example 49, (2R,5S)-5-[2-(4-chloro-3-fluorophenoxy)acetamido]-N-[2-(trifluoromethyl)pyrimidin-4-yl]piperidine-2-carboxamide], for which the IC50 lay in the range of 1 to 500 nM.
As for `O=C(COc1ccc(Cl)c(F)c1)N[C@H]1CC[C@H](C(=O)Nc2cncc(C(F)(F)F)n2)NC1` [Example 51, (2R,5S)-5-[2-(4-chloro-3-fluorophenoxy)acetamido]-N-[6-(trifluoromethyl)pyrazin-2-yl]piperidine-2-carboxamide], the figure is 1 to 500 nM.
As for `CN1C[C@@H](NC(=O)COc2ccc(Cl)c(F)c2)CC[C@@H]1C(=O)Nc1cncc(C(F)(F)F)n1` [Example 52, (2R,5S)-5-[2-(4-chloro-3-fluorophenoxy)acetamido]-1-methyl-N-[6-(trifluoromethyl)pyrazin-2-yl]piperidine-2-carboxamide], the figure is 1 to 500 nM.
